Experiment [1] has as its target T1, human Oxytocin (hOT) receptor (Homo sapiens, UniProt P30559).
T1 construct: expressed in transfected cells; host or cells: HEK293EBNA
T1 sequence (P30559 1-389): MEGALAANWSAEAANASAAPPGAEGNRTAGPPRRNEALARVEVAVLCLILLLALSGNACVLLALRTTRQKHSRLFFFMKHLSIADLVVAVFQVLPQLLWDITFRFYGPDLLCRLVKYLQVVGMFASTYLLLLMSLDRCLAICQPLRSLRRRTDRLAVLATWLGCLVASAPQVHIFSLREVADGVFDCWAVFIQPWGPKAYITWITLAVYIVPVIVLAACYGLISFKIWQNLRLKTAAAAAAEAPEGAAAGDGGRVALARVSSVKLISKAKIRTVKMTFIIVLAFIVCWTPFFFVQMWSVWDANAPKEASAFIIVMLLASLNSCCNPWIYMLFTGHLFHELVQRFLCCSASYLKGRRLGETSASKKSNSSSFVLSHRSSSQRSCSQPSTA
Nature of the experiment: In vitro competition binding assay on hOT receptor with scintillation proximity assay ([125I]-OVTA). Conditions: HEK293EBNA membranes expressing hOT receptor, 0.2 nM [125I]-OVTA, SPA; read-out: Binding affinity human OT-R IC50. The procedure: a) In Vitro Competition Binding Assay on hOT Receptor with Scintillation Proximity Assay (see Cook, N. D. et al. Pharmaceutical Manufacturing International 1992; p.49–53)
This assay allows to determine the affinity of the test compounds for the human Oxytocin (hOT) receptor. Membranes from HEK293EBNA (cells expressing the hOT receptor) were suspended in buffer containing 50 mM Tris-HCl, pH 7.4, 5 mM MgCl2 and 0.1% BSA (w/v). The membranes (2–4 μg) were mixed with 0.1 mg SPA bead coated with wheat-germ aglutinin (WGA-PVT-Polyethylene Imine beads from Amersham) and 0.2 nM of the radiolabelled [^125I]-OVTA (OVTA being Ornithin Vasoactive, an analogue of OT for competitive binding experiments). Non-specific binding was determined in the presence of 1 μM Oxytocin. The total assay volume was 100 μl. The plates (Corning® NBS plate) were incubated at room temperature for 30 min and counted on a Mibrobeta® plate scintillation counter. Competitive binding was performed in presence of compounds of formula (I) at the following concentrations: 30 μM, 10 μM, 1 μM, 300 nM, 100 nM, 10 nM, 1 nM, 100 pM, 10 pM. The competitive binding data were analysed using the iterative, nonlinear, curve-fitting program, “Prism” (GraphPad Software, Inc).
The ability of the pyrrolidine derivatives of formula (I) to inhibit the binding of ^125I-OVTA to the OT-receptor was assessed using the above described in vitro biological assay. Representative values for some example compounds are given in Table 1, where the binding affinity of the compounds is expressed by the IC50 (μM) which is the concentration upon which 50% inhibition of OT-R is achieved. From these values, it can be derived that said test compounds according to formula (I) do show a significant binding to the oxytocin receptor.

The next experiment has as its target T2, hOT receptor (Homo sapiens, UniProt P30559).
T2 construct: expressed in transfected cells; host or cells: HEK293EBNA
T2 sequence (P30559 1-389): T1 sequence (P30559 1-389)
Nature of the experiment: Functional assay No. 1: inhibition of oxytocin mediated Ca2+-mobilization by FLIPR in HEK293EBNA cells. The class given is cell-based. The conditions noted are these: HEK293EBNA cells expressing hOT receptor, OT 40 nM, fluo-4, FLIPR; read-out: Inhibition of Ca2+ mobiliation, hOT-R IC50. An excerpt:
b) Functional Assay No. 1: Inhibition of Oxytocin Mediated Ca^2+-mobilization by FLIPR® (Fluorimetric Imaging Plate Reader)
The action of OT on the OT-receptor triggers a complex cascade of events in the cell which leads to an increase in the intra-cytoplasmic Ca^2+ concentration. This increase in Ca^2+ concentration results from both calcium release from the sarcoplasmic reticulum (calcium stores) into the cytoplasm and from calcium influx from the extracellular space through Ca^2+ channels. […]
FLIPR® is a fluorimetric imaging device using a laser (Argon-ion laser) for simultaneous illumination and reading (cooled CCD camera) of each well of a 96-well-plate, thus enabling rapid measurements on a large number of samples. […]
The relative fluorescence of Fluo-4 (λex=488 nm, […]) is then measured by the FLIPR in presence or absence of compounds of formula (I). The fluorescence of the marker being sensitive to the amount of Ca^2+, the Ca^2+ movements can be detected. Then, the ability of compounds of formula (I) to antagonize the oxytocin-induced intracellular Ca^2+-mobilization mediated by the oxytocin receptor may be determined.
The activities of the pyrrolidine derivatives according to formula (I) were assessed using the above described in vitro biological assay. […]

Drawing on patent publication US7189754B2, “Pyrrolidine ester derivatives with oxytocin modulating activity” (Applied Research Systems ARS Holding NV, priority 2001, dated 2007), this text covers IC50 for two molecules.

Regarding `CO/N=C1\C[C@@H](C(=O)OC)N(C(=O)c2ccc(-c3ccccc3C)cc2)C1` [Methyl (2S,4E)-4-(methoxyimino)-1-[(2′-methyl[1,1′-biphenyl]-4-yl)carbonyl]-2-pyrrolidinecarboxylate], the IC50 – broadly, the concentration at which inhibition is half-maximal – amounted to 36 nM in experiment [1] and 15 nM on hOT receptor.

Regarding `CO/N=C1/C[C@@H](C(=O)OC)N(C(=O)c2ccc(-c3ccccc3C)cc2)C1` [Methyl (2S,4Z)-4-(methoxyimino)-1-[(2′-methyl[1,1′-biphenyl]-4-yl)carbonyl]-2-pyrrolidinecarboxylate], the values for the IC50 (in experiment [1]; on hOT receptor) were 12 nM and 15 nM, respectively.
